Reference: ChEMBL document CHEMBL5346930, “Discovery of novel N-benzylarylamide-dithiocarbamate based derivatives as dual inhibitors of tubulin polymerization and LSD1 that inhibit gastric cancers” (Eur J Med Chem, 2023)
Calls of active or inactive are those of the source. The calls are words filed in the database; no cut-off is given here.

Experiments:
SGC-7901 [1] = assay: Antiproliferative activity against human SGC-7901 cells assessed as inhibition of cell growth incubated for 48 hrs by MTT assay; format: functional, cell-based; details: SGC-7901, 48 h
MCF7 = assay: Antiproliferative activity against human MCF7 cells assessed as inhibition of cell growth incubated for 48 hrs by MTT assay; format: functional, cell-based; details: MCF7, 48 h
ECa-109 cell line = assay: Antiproliferative activity against human EC109 cells assessed as inhibition of cell growth incubated for 48 hrs by MTT assay; format: functional, cell-based; details: ECa-109, 48 h
SMMC-7721 = assay: Antiproliferative activity against human SMMC-7721 cells assessed as inhibition of cell growth incubated for 48 hrs by MTT assay; format: functional, cell-based; details: SMMC-7721, 48 h
MGC-803 [2] = assay: Antiproliferative activity against human MGC-803 cells assessed as inhibition of cell growth at 10 to 30 nM by MTT assay; format: functional, cell-based; details: dose 10-30 nM, time 0-60 hrs, TDE = time-dependent effect
Tubulin = assay: Inhibition of tubulin polymerization (unknown origin) assessed as reduction in fluorescence intensity measured every 60 secs for 1 hr by microplate reader analysis; format: protein-complex assay, Homo sapiens
Tubulin (Homo sapiens) [3] = biological target: T1, Tubulin (Homo sapiens) (UniProt P68371+Q9H4B7+P0DPH7+P68366+Q13509+Q71U36+P04350+Q3ZCM7+P07437+P68363+Q9BQE3+Q6PEY2+Q13885+Q9BVA1+Q9BUF5); assay: Inhibition of tubulin polymerization in human SGC-7901 cells assessed as destruction of microtubule network incubated for 48 hrs by immunofluorescence staining based fluorescence microscopic analysis; format: cell-based; details: dose 0-30 nmol/L
Tubulin (Homo sapiens) [4] = biological target: T1, Tubulin (Homo sapiens); assay: Inhibition of tubulin polymerization in human MGC-803 cells assessed as destruction of microtubule network incubated for 48 hrs by immunofluorescence staining based fluorescence microscopic analysis; format: cell-based; details: dose 0-24 nmol/L
[5] = biological target: T2, Lysine-specific histone demethylase 1A (Homo sapiens, UniProt O60341); assay: Inhibition of LSD1 in human MGC-803 cells assessed as increase in H3K4me1 expression level at 0 to 24 nmol/L incubated for 48 hrs by Western blot analysis; format: cell-based; details: dose 0-24 nmol/L
[6] = biological target: T2, Lysine-specific histone demethylase 1A; assay: Inhibition of LSD1 in human MGC-803 cells assessed as increase in H3K4me2 expression level at 0 to 24 nmol/L incubated for 48 hrs by Western blot analysis; format: cell-based; details: dose 0-24 nmol/L
[7] = biological target: T2, Lysine-specific histone demethylase 1A; assay: Inhibition of LSD1 in human SGC-7901 cells assessed as increase in H3K4me2 expression level at 0 to 30 nmol/L incubated for 48 hrs by Western blot analysis; format: cell-based; details: dose 0-30 nmol/L
[8] = biological target: T2, Lysine-specific histone demethylase 1A; assay: Inhibition of LSD1 in human SGC-7901 cells assessed as increase in H3K9me1/2 expression level at 0 to 30 nmol/L incubated for 48 hrs by Western blot analysis; format: cell-based; details: dose 0-30 nmol/L
SGC-7901 [9] = assay: Induction of cell cycle arrest in human SGC-7901 cells assessed as accumulation of cells at G2/M phase at 30 nmol/L incubated for 48 hrs (reference value: 32%); format: functional
SGC-7901 [10] = assay: Induction of cell cycle arrest in human SGC-7901 cells assessed as accumulation of cells at G2/M phase incubated for 48 hrs; format: functional, cell-based; details: dose 0-30 nmol/L
SGC-7901 [11] = assay: Induction of cell cycle arrest in human SGC-7901 cells assessed as downregulation of Wee1 protein expression incubated for 48 hrs by Western blot analysis; format: functional, cell-based; details: dose 0-30 nmol/L
SGC-7901 [12] = assay: Induction of cell cycle arrest in human SGC-7901 cells assessed as downregulation of CDC2 protein expression incubated for 48 hrs by Western blot analysis; format: functional, cell-based; details: dose 0-30 nmol/L
MGC-803 [13] = assay: Induction of cell cycle arrest in human MGC-803 cells assessed as increase in p-Histone H3 protein expression incubated for 48 hrs by Western blot analysis; format: functional, cell-based; details: dose 0-24 nmol/L
SGC-7901 [14] = assay: Induction of cell cycle arrest in human SGC-7901 cells assessed as increase in p-Histone H3 protein expression incubated for 48 hrs by Western blot analysis; format: functional, cell-based; details: dose 0-30 nmol/L
MGC-803 [15] = assay: Induction of morphological changes in human MGC-803 cells assessed as appearance of oblate and bright cells at 0 to 24 nmol/L incubated for 48 hrs by bright field microscopic analysis; format: functional, cell-based; details: dose 0-24 nmol/L
SGC-7901 [16] = assay: Induction of morphological changes in human SGC-7901 cells assessed as appearance of oblate and bright cells at 0 to 30 nmol/L incubated for 48 hrs by bright field microscopic analysis; format: functional, cell-based; details: dose 0-30 nmol/L
SGC-7901 [17] = assay: Induction of morphological changes in human SGC-7901 cells assessed as reduction in cell density at 0 to 30 nmol/L incubated for 48 hrs by bright field microscopic analysis; format: functional, cell-based; details: dose 0-30 nmol/L
MGC-803 [18] = assay: Induction of apoptosis in human MGC-803 cells assessed as increase in total apoptotic cells incubated for 48 hrs by Annexin-FITC/PI staining based flow cytometry analysis; format: functional, cell-based; details: dose 0-24 nmol/L
MGC-803 [19] = assay: Induction of apoptosis in human MGC-803 cells assessed as total apoptotic cells at 24 nmol/L incubated for 48 hrs by Annexin-FITC/PI staining based flow cytometry analysis (reference value: 10.9%); format: functional
SGC-7901 [20] = assay: Induction of apoptosis in human SGC-7901 cells assessed as total apoptotic cells at 30 nmol/L incubated for 48 hrs by Annexin-FITC/PI staining based flow cytometry analysis (reference value: 5.9%); format: functional
SGC-7901 [21] = assay: Induction of apoptosis in human SGC-7901 cells assessed as downregulation of Bcl-2 protein expression incubated for 48 hrs by Western blot analysis; format: functional, cell-based; details: dose 0-30 nmol/L
SGC-7901 [22] = assay: Induction of apoptosis in human SGC-7901 cells assessed as downregulation of Mcl-1 protein expression incubated for 48 hrs by Western blot analysis; format: functional, cell-based; details: dose 0-30 nmol/L
MGC-803 [23] = assay: Induction of apoptosis in human MGC-803 cells assessed as activation of caspase-3 at 0 to 24 nmol/L incubated for 48 hrs by Western blot analysis; format: functional, cell-based; details: dose 0-24 nmol/L
MGC-803 [24] = assay: Induction of apoptosis in human MGC-803 cells assessed as activation of caspase-7 at 0 to 24 nmol/L incubated for 48 hrs by Western blot analysis; format: functional, cell-based; details: dose 0-24 nmol/L
SGC-7901 [25] = assay: Induction of apoptosis in human SGC-7901 cells assessed as activation of caspase-7 at 0 to 30 nmol/L incubated for 48 hrs by Western blot analysis; format: functional, cell-based; details: dose 0-30 nmol/L
MGC-803 [26] = assay: Induction of apoptosis in human MGC-803 cells assessed as increase in cleaved caspase-3 level at 0 to 24 nmol/L incubated for 48 hrs by Western blot analysis; format: functional, cell-based; details: dose 0-24 nmol/L
SGC-7901 [27] = assay: Induction of apoptosis in human SGC-7901 cells assessed as increase in cleaved caspase-3 level at 0 to 30 nmol/L incubated for 48 hrs by Western blot analysis; format: functional, cell-based; details: dose 0-30 nmol/L
MGC-803 [28] = assay: Induction of apoptosis in human MGC-803 cells assessed as increase in cleaved PARP level at 0 to 24 nmol/L incubated for 48 hrs by Western blot analysis; format: functional, cell-based; details: dose 0-24 nmol/L
MGC-803 [29] = assay: Inhibition of cell migration in human MGC-803 cells assessed as reduction in number of cells crossing membrane at 4 nmol/L measured after 48 hrs by transwell assay; format: functional, cell-based
[30] = Hepatotoxicity in BALB/c nude mouse xenografted with human MGC-803 cells assessed as effect on ALT level at 25 mg/kg/day, ip administered every day for 21 days; format: toxicity, organism-based; details: in vivo, 504 h, time 21 day
[31] = Nephrotoxicity in BALB/c nude mouse xenografted with human MGC-803 cells assessed as effect on BUN level at 25 mg/kg/day, ip administered every day for 21 days; format: toxicity, organism-based; details: in vivo, 504 h, time 21 day
MGC-803 [32] = assay: cells; details: Homo sapiens, MGC-803, 48 h
Description: Antiproliferative activity against human MGC-803 cells assessed as inhibition of cell growth incubated for 48 hrs by MTT assay

Question: With COc1ccc(CN(C(=O)CSC(=S)N2CCN(c3ccc(N)cc3)CC2)c2cc(OC)c(OC)c(OC)c2)cc1O as the compound, how does the IC50 (SGC-7901 [1]) read?
Answer: 19.5 nM

Question: And the IC50 (MCF7)?
Answer: 34.4 nM

Question: What about the IC50 (ECa-109 cell line) of the same compound?
Answer: 114 nM

Question: What about the IC50 (SMMC-7721) of the same compound?
Answer: 27 nM

Question: What about the Activity (MGC-803 [2]) of the same compound?
Answer: Tde

Question: What about the IC50 (Tubulin) of the same compound?
Answer: 3060 nM

Question: What about the inhibition (Tubulin (Homo sapiens) [3]) of the same compound?
Answer: Dose-Dependent Effect

Question: What about the inhibition (Tubulin (Homo sapiens) [4]) of the same compound?
Answer: Dose-Dependent Effect

Question: And the inhibition [5]?
Answer: Active

Question: What about the inhibition [6] of the same compound?
Answer: Active

Question: And the inhibition [7]?
Answer: Active

Question: And the inhibition [8]?
Answer: Active

Question: What about the Activity (SGC-7901 [9]) of the same compound?
Answer: 74%

Question: And the Activity (SGC-7901 [10])?
Answer: Dose-Dependent Effect

Question: And the Activity (SGC-7901 [11])?
Answer: Dose-Dependent Effect

Question: And the Activity (SGC-7901 [12])?
Answer: Dose-Dependent Effect

Question: What about the Activity (MGC-803 [13]) of the same compound?
Answer: Dose-Dependent Effect

Question: And the Activity (SGC-7901 [14])?
Answer: Dose-Dependent Effect

Question: And the Activity (MGC-803 [15])?
Answer: Active

Question: What about the Activity (SGC-7901 [16]) of the same compound?
Answer: Active

Question: And the Activity (SGC-7901 [17])?
Answer: Active

Question: And the Activity (MGC-803 [18])?
Answer: Dose-Dependent Effect

Question: And the Activity (MGC-803 [19])?
Answer: 85.5%

Question: What about the Activity (SGC-7901 [20]) of the same compound?
Answer: 75.4%

Question: What about the Activity (SGC-7901 [21]) of the same compound?
Answer: Dose-Dependent Effect

Question: What about the Activity (SGC-7901 [22]) of the same compound?
Answer: Dose-Dependent Effect

Question: What about the Activity (MGC-803 [23]) of the same compound?
Answer: Active

Question: What about the Activity (MGC-803 [24]) of the same compound?
Answer: Active

Question: What about the Activity (SGC-7901 [25]) of the same compound?
Answer: Active

Question: What about the Activity (MGC-803 [26]) of the same compound?
Answer: Active

Question: What about the Activity (SGC-7901 [27]) of the same compound?
Answer: Active

Question: What about the Activity (MGC-803 [28]) of the same compound?
Answer: Active

Question: What about the inhibition (MGC-803 [29]) of the same compound?
Answer: Active

Question: And the Activity [30]?
Answer: Non-Toxic

Question: What about the Activity [31] of the same compound?
Answer: Non-Toxic

Question: What about the IC50 (MGC-803 [32]) of the same compound?
Answer: 17 nM
